Results: the NIST ThermoML archive (doi:10.1021/je9005757)

Assay: cn = amount concentration of the nth substance listed, in mol/dm3
Details: 101 kPa, Liquid; for molar conductivity: Shedlovsky-type conductance cell; for binary diffusion coefficient: Open capillary

CN[C@H](C)[C@@H](O)c1ccccc1.[Cl-].[H+] [D-α-(1-methylaminoethyl)benzyl alcohol] + O
Details | binary diffusion coefficient, 298.15 K [m2/s] | binary diffusion coefficient, 310.15 K [m2/s] | molar conductivity, 283.15 K [S·m2/mol] | molar conductivity, 293.15 K [S·m2/mol] | molar conductivity, 298.15 K [S·m2/mol] | molar conductivity, 303.15 K [S·m2/mol] | molar conductivity, 310.15 K [S·m2/mol] | molar conductivity, 323.15 K [S·m2/mol]
c1 = 0.001 | 1.13e-09 | 1.57e-09 | – | – | – | – | – | –
c1 = 0.001841 | – | – | 0.006545 | 0.00844 | 0.009366 | 0.01041 | 0.01201 | 0.01524
c1 = 0.00244 | – | – | 0.006422 | 0.008268 | 0.009179 | 0.0102 | 0.01177 | 0.01489
c1 = 0.0025 | 1.12e-09 | 1.53e-09 | – | – | – | – | – | –
c1 = 0.003031 | – | – | 0.006316 | 0.008109 | 0.009034 | 0.01001 | 0.01159 | 0.01469
c1 = 0.003615 | – | – | 0.006204 | 0.007973 | 0.008901 | 0.009837 | 0.01141 | 0.01444
c1 = 0.004193 | – | – | 0.006101 | 0.007849 | 0.008778 | 0.009703 | 0.01122 | 0.01422
c1 = 0.004763 | – | – | 0.006018 | 0.007749 | 0.008675 | 0.009566 | 0.01107 | 0.01401
c1 = 0.005 | 1.1e-09 | 1.48e-09 | – | – | – | – | – | –
c1 = 0.005327 | – | – | 0.005942 | 0.007661 | 0.008577 | 0.009439 | 0.01094 | 0.01384
c1 = 0.005884 | – | – | 0.005866 | 0.00757 | 0.008481 | 0.00932 | 0.01079 | 0.01368
c1 = 0.006434 | – | – | 0.005795 | 0.007486 | 0.00839 | 0.009208 | 0.0107 | 0.01352
c1 = 0.006978 | – | – | 0.005725 | 0.007395 | 0.008298 | 0.009099 | 0.01057 | 0.01337
c1 = 0.007516 | – | – | 0.005655 | 0.00731 | 0.008205 | 0.008991 | 0.01046 | 0.01322
c1 = 0.008 | 1.05e-09 | 1.42e-09 | – | – | – | – | – | –
c1 = 0.008048 | – | – | 0.005593 | 0.007232 | 0.00812 | 0.008893 | 0.01036 | 0.01308
c1 = 0.008573 | – | – | 0.005534 | 0.007159 | 0.00804 | 0.0088 | 0.01027 | 0.01295
c1 = 0.009093 | – | – | 0.005477 | 0.007089 | 0.007965 | 0.008713 | 0.01018 | 0.01283
c1 = 0.009607 | – | – | 0.005427 | 0.007027 | 0.007896 | 0.008633 | 0.01009 | 0.01271
c1 = 0.01 | 1.01e-09 | 1.38e-09 | – | – | – | – | – | –
c1 = 0.01012 | – | – | 0.005377 | 0.006966 | 0.007829 | 0.008556 | 0.01001 | 0.0126
c1 = 0.01062 | – | – | 0.005329 | 0.006904 | 0.007761 | 0.008478 | 0.009923 | 0.01249
c1 = 0.01111 | – | – | 0.005284 | 0.006844 | 0.007695 | 0.008404 | 0.009841 | 0.01238
c1 = 0.01161 | – | – | 0.005242 | 0.006785 | 0.00763 | 0.008329 | 0.00976 | 0.01228
c1 = 0.01209 | – | – | 0.005196 | 0.006729 | 0.007567 | 0.008257 | 0.009679 | 0.01217
c1 = 0.01257 | – | – | 0.005156 | 0.006675 | 0.007501 | 0.00819 | 0.009603 | 0.01208
c1 = 0.01305 | – | – | 0.005118 | 0.006626 | 0.00745 | 0.008126 | 0.009532 | 0.01198
c1 = 0.01352 | – | – | 0.005078 | 0.006576 | 0.007395 | 0.008064 | 0.009461 | 0.01189
c1 = 0.01398 | – | – | 0.005038 | 0.006528 | 0.007343 | 0.008005 | 0.009394 | 0.01181
c1 = 0.01444 | – | – | 0.005003 | 0.006483 | 0.007291 | 0.007946 | 0.009328 | 0.01172
c1 = 0.0149 | – | – | 0.004966 | 0.006437 | 0.007239 | 0.007888 | 0.009261 | 0.01164
c1 = 0.01535 | – | – | 0.004929 | 0.00639 | 0.007188 | 0.007831 | 0.009196 | 0.01155
c1 = 0.01579 | – | – | 0.004894 | 0.006343 | 0.007138 | 0.007776 | 0.009132 | 0.01147
c1 = 0.01623 | – | – | 0.004861 | 0.006302 | 0.00709 | 0.007722 | 0.009069 | 0.01139
c1 = 0.01667 | – | – | 0.004832 | 0.006262 | 0.007045 | 0.007671 | 0.00901 | 0.01132

CN[C@@H](C)[C@H](O)c1ccccc1.Cl [ephedrine hydrochloride] + O
Details | binary diffusion coefficient, 298.15 K [m2/s] | binary diffusion coefficient, 310.15 K [m2/s] | molar conductivity, 283.15 K [S·m2/mol] | molar conductivity, 293.15 K [S·m2/mol] | molar conductivity, 298.15 K [S·m2/mol] | molar conductivity, 303.15 K [S·m2/mol] | molar conductivity, 310.15 K [S·m2/mol] | molar conductivity, 323.15 K [S·m2/mol]
c1 = 0.00125 | 1.15e-09 | 1.57e-09 | – | – | – | – | – | –
c1 = 0.00184 | – | – | 0.006571 | 0.008375 | 0.009463 | 0.01041 | 0.01195 | 0.01495
c1 = 0.002438 | – | – | 0.006463 | 0.008198 | 0.009282 | 0.01023 | 0.01173 | 0.01471
c1 = 0.0025 | 1.1e-09 | 1.56e-09 | – | – | – | – | – | –
c1 = 0.00303 | – | – | 0.006355 | 0.008059 | 0.009127 | 0.01006 | 0.01154 | 0.01449
c1 = 0.003614 | – | – | 0.00628 | 0.007907 | 0.008991 | 0.009914 | 0.01139 | 0.01427
c1 = 0.004191 | – | – | 0.006181 | 0.007775 | 0.00886 | 0.009802 | 0.01125 | 0.01408
c1 = 0.004761 | – | – | 0.006103 | 0.007663 | 0.008753 | 0.009663 | 0.01108 | 0.01392
c1 = 0.00499 | 1.09e-09 | 1.5e-09 | – | – | – | – | – | –
c1 = 0.005324 | – | – | 0.006044 | 0.007564 | 0.008653 | 0.009567 | 0.01096 | 0.01377
c1 = 0.005881 | – | – | 0.00599 | 0.007468 | 0.008556 | 0.009474 | 0.01085 | 0.01356
c1 = 0.006431 | – | – | 0.005925 | 0.007377 | 0.008465 | 0.009363 | 0.01074 | 0.01344
c1 = 0.006975 | – | – | 0.00586 | 0.007288 | 0.008374 | 0.009271 | 0.01064 | 0.01332
c1 = 0.00746 | 1.03e-09 | 1.45e-09 | – | – | – | – | – | –
c1 = 0.007513 | – | – | 0.005794 | 0.007199 | 0.008283 | 0.009197 | 0.01052 | 0.01318
c1 = 0.008044 | – | – | 0.005736 | 0.007119 | 0.008199 | 0.00911 | 0.01042 | 0.01307
c1 = 0.008569 | – | – | 0.005685 | 0.007044 | 0.00812 | 0.009028 | 0.01033 | 0.01295
c1 = 0.009089 | – | – | 0.005635 | 0.006974 | 0.008044 | 0.008949 | 0.01023 | 0.01284
c1 = 0.009602 | – | – | 0.005584 | 0.006908 | 0.007975 | 0.008878 | 0.01015 | 0.01274
c1 = 0.01 | 1e-09 | 1.41e-09 | – | – | – | – | – | –
c1 = 0.01011 | – | – | 0.005537 | 0.006846 | 0.007908 | 0.008807 | 0.01007 | 0.01264
c1 = 0.01061 | – | – | 0.005491 | 0.006795 | 0.00784 | 0.008734 | 0.009982 | 0.01254
c1 = 0.01111 | – | – | 0.005446 | 0.006723 | 0.007774 | 0.008665 | 0.009901 | 0.01244
c1 = 0.0116 | – | – | 0.005401 | 0.006663 | 0.007709 | 0.008596 | 0.009821 | 0.01234
c1 = 0.01209 | – | – | 0.005359 | 0.006604 | 0.007646 | 0.008528 | 0.009742 | 0.01226
c1 = 0.01256 | – | – | 0.00532 | 0.006549 | 0.007586 | 0.008464 | 0.009673 | 0.01215
c1 = 0.01304 | – | – | 0.005281 | 0.006498 | 0.00753 | 0.008437 | 0.009602 | 0.01206
c1 = 0.01351 | – | – | 0.005244 | 0.006448 | 0.007474 | 0.008343 | 0.009533 | 0.01197
c1 = 0.01397 | – | – | 0.00521 | 0.0064 | 0.007422 | 0.008286 | 0.009467 | 0.01189
c1 = 0.01443 | – | – | 0.005176 | 0.006354 | 0.00737 | 0.00823 | 0.009401 | 0.01181
c1 = 0.01489 | – | – | 0.00514 | 0.006307 | 0.007318 | 0.008174 | 0.009336 | 0.01172
c1 = 0.01534 | – | – | 0.005107 | 0.00626 | 0.007267 | 0.008118 | 0.009271 | 0.01164
c1 = 0.01579 | – | – | 0.005075 | 0.006217 | 0.007217 | 0.008064 | 0.009208 | 0.01156
c1 = 0.01623 | – | – | 0.005042 | 0.006174 | 0.00717 | 0.008012 | 0.009146 | 0.01149
c1 = 0.01666 | – | – | 0.005011 | 0.006133 | 0.007125 | 0.007962 | 0.009088 | 0.01141
